This note sets out measurements from PMC5007466, “VCP recruitment to mitochondria causes mitophagy impairment and neurodegeneration in models of Huntington's disease” (Nature Communications, 2016).

In data set [1] the test system is R6/2 mice. The data set can be described thus: Hindlimb clasping (tail suspension test). As to conditions: R6/2, 8 to 11 weeks of age, 3 mg kg^−1 per day, n=15, versus TAT. It counts as in vivo, mouse. The procedure:
(§1) Male hemizygous R6/2 mice (Tg) and their age-matched wt littermates (5-week-old) were implanted with a 28-day osmotic pump (Alzet, Cupertino CA) containing TAT control peptide or HV-3 peptide, which delivered peptides to the mice at a rate of 3 mg kg^−1 per day. The first pump was implanted subcutaneously in the back of 5-week-old mice between the shoulders and replaced once, after 4 weeks.
Hindlimb clasping was assessed with the tail suspension test once a week from the ages 8 to 11 weeks in R6/2 mice. Mice were suspended by the tail for 60 s and the latency for the hindlimbs or all four paws to clasp was recorded using the score system[67]: Clasping over 10 s, score 3; 5–10 s, score 2; 0–5 s, score 1; 0 s, score 0.

Data set [2] deals with wild-type mouse striatal cells. The data set can be described thus: GFP-LC3B association with mitochondria in cells expressing Flag-VCP. As to conditions: wt striatal cells, 36 h. The data set is classed as cell-based. The method, then: Figure 5 Treatment of HV-3 reduces excessive mitophagy in HD cell cultures and HD mouse brains. (a) HdhQ7 and HdhQ111 cells were treated with control siRNA (con) or VCP siRNA (siVCP) for 48 h. Mitochondria were isolated and LC3 mitochondrial levels were determined by WB. Representative blots are from three independent experiments. The quantitation of LC3 II levels on mitochondria is provided on the right. VADC was used as a loading control. (b) Flag-VCP and GFP-LC3B were co-transfected into wild-type striatal cells. Mitochondria were isolated after 36 h of transfection. The GFP-LC3B levels on mitochondria were examined by WB. VDAC was used as a loading control. Representative blots are from three independent experiments. Histogram: quantitation of GFP-LC3B mitochondrial protein level. HdhQ7 and HdhQ111 cells were treated with control peptide TAT or peptide HV-3 (3 uM/day for 3 days). (c) HdhQ111 cells were transfected with GFP-LC3B for 24 h. The number of GFP-LC3B puncta was quantitated and shown in the histogram. […] (d) Enzyme activity of lysosomal Cathepsin B was measured using a Cathepsin B assay kit. […] (e) Mitochondrial mass was measured by the fluorescent density of Mitotracker green. […] Histogram: the number of mitophagosomes per 100 μm^2 was counted and quantitated. Fifteen random areas in the striatum of each animal were analyzed. […]
Protein concentrations were determined by Bradford assay. […]

In the next data set the test system is HdhQ7 striatal cells. The data set can be described thus: Total GFP-LC3B protein level. The data set is classed as cell-based, mouse. The following applies: Flag-VCP + GFP-LC3B, 36 h. The method, then:
Protein concentrations were determined by Bradford assay. Protein was resuspended in Laemmli buffer, loaded on SDS–PAGE, and transferred onto nitrocellulose membranes. Membranes were probed with the indicated antibodies, followed by visualization with ECL. Representative blots have been cropped for presentation. Images of full-size blots are presented in Supplementary Fig. 9. […]
mouse striatal cells were treated with thapsigargin (1μM) or tunicamycin (10μ g/ml) for 16 hours i n the presence or absence of HV -3 (3 µM). GRP78 total protein levels were determined by western blot analysis. Representative blots of three independent experiments are shown. Actin was used here as a loading control. (b) Tw e n t y -four hours of serum starvation was performed in HD mouse striatal cells.
Caspase-3 activity analysis was performed in the indicated groups. Data are mean ± SEM of three independent experiments. (c) Flag-VCP and GFP-LC3B were co-transfected into HdhQ7 striatal cells.
Total lysates were isolated after 36 hours of transfection. The GFP -LC3B levels were examined by western blot analysis. Actin was used as a loading control. Histogram: quantitation of GFP-LC3B total protein level. Data are mean ± SEM of three independent experiments.
(1 picture or pasted object on this page, not shown here)

The test system of data set [3] is wt mice (R6/2 littermates). The data set can be described thus: Motor ability, body weight, life span of wt littermates. The following applies: 3 mg kg^−1 per day, 5–13 weeks of age. The data set is classed as in vivo, mouse. The procedure: as §1
(§2) Gross locomotor activity was assessed in R6/2 mice and age-matched wt littermates at the ages of 13 weeks and in YAC128 mice and age-matched wt littermates at the ages of 2, 3, 6, 9, and 12 months. In an activity chamber (Omnitech Electronics, Inc), mice were placed in the center of the chamber and allowed to explore while being tracked by an automated beam system (Vertax, Omnitech Electronics Inc). Distance moved, horizontal, vertical, and rearing activities were recorded. Because R6/2 mice were sensitive to changes in environment and handling, we only conducted one-hour locomotor activity analysis for R6/2 mice and wt littermates. We performed 24 h of locomotor activity analysis for YAC128 mice and their wt littermates.
The body weight and survival rate of HD mice and wt littermates were recorded throughout the study period.

Data set [4] concerns R6/2 mice. The data set can be described thus: Spontaneous locomotion, R6/2. It counts as in vivo, mouse. The following applies: R6/2, 13 weeks of age, 3 mg kg^−1 per day s.c. pump from 5 weeks, n=15.
From the text: Male R6/2 mice and their wt littermates (4 weeks old) were purchased from Jackson Laboratories (Bar Harbor, ME; B6CBA-TgN (HD exon 1)62; JAX stock number: 006494). These mice (C57BL/6 and CBA genetic background) are transgenic for the 5′ end of the human HD gene carrying 100–150 glutamine (CAG) repeats.
as §1
as §2, with “We performed 24 h of locomotor activity analysis for YAC128 mice and their wt littermates.” left out

Turning to `CSCC[C@H](NC(=O)[C@@H](NC(=O)[C@H](CC(C)C)NC(=O)[C@@H](NC(=O)[C@H](Cc1c[nH]cn1)NC(=O)CCCCCNC(=O)[C@H](CCCNC(=N)N)NC(=O)[C@H](CCCNC(=N)N)NC(=O)[C@H](CCCNC(=N)N)NC(=O)[C@H](CCC(N)=O)NC(=O)[C@H](CCCNC(=N)N)NC(=O)[C@H](CCCNC(=N)N)NC(=O)[C@H](CCCCN)NC(=O)[C@H](CCCCN)NC(=O)[C@H](CCCNC(=N)N)NC(=O)CNC(=O)[C@@H](N)Cc1ccc(O)cc1)C(C)C)C(C)C)C(=O)N[C@@H](CS)C(=O)N[C@@H](C)C(=O)N[C@H](C(N)=O)[C@@H](C)O` [HV-3], in the data set on R6/2 mice [1], the “severity of clasping behaviour” value is listed as “significantly lower over the 4-week observation period”. For the same compound, the “GFP-LC3B association with mitochondria” value in data set [2] is “could be inhibited by treatment with HV-3”. Besides, the “total GFP-LC3B protein level” value in the data set on HdhQ7 striatal cells is on record as “no effect on the total protein level of GFP-LC3B”. Also, the “motor ability, body weight, life span of wt mice” value in data set [3] is “no effects on motor ability, body weight, or life span in wt mice”. Moreover, the “spontaneous locomotion (total distance, horizontal and vertical activities)” value with R6/2 mice [4] is on record as “markedly corrected these motor deficits”.
